The source of these data is US20250177363A1, “SUBSTITUTED IMIDAZOPYRIDINYL COMPOUNDS USEFUL AS INHIBITORS OF TLR9” (Bristol-Myers Squibb Company, priority 2022, published 2025).

Common to all, as to type: cell-based
In one experiment the target is T1, human TLR7 (Homo sapiens, UniProt Q9NYK1).
T1 construct: host or cells: HEK-Blue cells
T1 sequence (Q9NYK1 27-1049): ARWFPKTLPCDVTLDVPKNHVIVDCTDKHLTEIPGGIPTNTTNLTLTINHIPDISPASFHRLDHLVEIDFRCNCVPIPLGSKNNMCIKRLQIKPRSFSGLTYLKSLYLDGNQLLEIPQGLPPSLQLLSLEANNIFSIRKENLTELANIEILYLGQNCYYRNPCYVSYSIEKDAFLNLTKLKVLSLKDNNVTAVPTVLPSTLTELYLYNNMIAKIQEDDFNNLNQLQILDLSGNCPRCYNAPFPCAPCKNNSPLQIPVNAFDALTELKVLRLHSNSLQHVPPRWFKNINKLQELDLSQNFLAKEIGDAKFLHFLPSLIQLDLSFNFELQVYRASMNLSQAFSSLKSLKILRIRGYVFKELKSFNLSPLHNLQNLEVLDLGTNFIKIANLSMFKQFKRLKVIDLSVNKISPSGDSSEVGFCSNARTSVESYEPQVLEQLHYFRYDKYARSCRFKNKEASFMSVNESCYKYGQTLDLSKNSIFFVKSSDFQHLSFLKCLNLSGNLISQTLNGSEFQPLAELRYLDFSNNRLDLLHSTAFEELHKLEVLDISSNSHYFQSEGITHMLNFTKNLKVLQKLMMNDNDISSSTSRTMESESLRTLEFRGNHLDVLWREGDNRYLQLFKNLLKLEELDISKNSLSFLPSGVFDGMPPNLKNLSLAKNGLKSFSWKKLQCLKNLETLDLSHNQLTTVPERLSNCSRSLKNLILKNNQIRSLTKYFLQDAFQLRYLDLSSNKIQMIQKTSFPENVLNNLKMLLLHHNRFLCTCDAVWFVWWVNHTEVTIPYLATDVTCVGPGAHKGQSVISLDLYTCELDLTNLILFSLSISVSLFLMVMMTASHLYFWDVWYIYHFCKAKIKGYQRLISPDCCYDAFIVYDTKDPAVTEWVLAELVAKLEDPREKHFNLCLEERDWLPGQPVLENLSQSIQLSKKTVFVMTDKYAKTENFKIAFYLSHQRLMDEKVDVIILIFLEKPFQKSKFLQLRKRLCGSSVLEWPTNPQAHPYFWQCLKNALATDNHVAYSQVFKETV
The experiment is described as follows: TLR7 inhibition reporter assay (HEK-Blue, SEAP). Conditions: HEK-Blue cells overexpressing human TLR7, ligand gardiquimod 2.5 μM, 22 hour incubation. The gist of the method: (§1)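 HEK-Blue cells expressing human TLR7, TLR8 or TLR9 with NF-κB/AP-1-driven SEAP reporter; compounds 0.85 nM–50 μM, pre-treated 60 min. Stimulation: gardiquimod 2.5 μM (TLR7), R848 14.25 μM (TLR8), ODN2006 200 nM (TLR9); SEAP read after 22 h at 37 °C. Percent inhibition normalized between agonist+DMSO and known-inhibitor wells.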

The target in a further experiment is T2, human TLR9 (Homo sapiens, UniProt Q9NR96).
T2 construct: host or cells: HEK-Blue cells
T2 sequence (Q9NR96 26-1032): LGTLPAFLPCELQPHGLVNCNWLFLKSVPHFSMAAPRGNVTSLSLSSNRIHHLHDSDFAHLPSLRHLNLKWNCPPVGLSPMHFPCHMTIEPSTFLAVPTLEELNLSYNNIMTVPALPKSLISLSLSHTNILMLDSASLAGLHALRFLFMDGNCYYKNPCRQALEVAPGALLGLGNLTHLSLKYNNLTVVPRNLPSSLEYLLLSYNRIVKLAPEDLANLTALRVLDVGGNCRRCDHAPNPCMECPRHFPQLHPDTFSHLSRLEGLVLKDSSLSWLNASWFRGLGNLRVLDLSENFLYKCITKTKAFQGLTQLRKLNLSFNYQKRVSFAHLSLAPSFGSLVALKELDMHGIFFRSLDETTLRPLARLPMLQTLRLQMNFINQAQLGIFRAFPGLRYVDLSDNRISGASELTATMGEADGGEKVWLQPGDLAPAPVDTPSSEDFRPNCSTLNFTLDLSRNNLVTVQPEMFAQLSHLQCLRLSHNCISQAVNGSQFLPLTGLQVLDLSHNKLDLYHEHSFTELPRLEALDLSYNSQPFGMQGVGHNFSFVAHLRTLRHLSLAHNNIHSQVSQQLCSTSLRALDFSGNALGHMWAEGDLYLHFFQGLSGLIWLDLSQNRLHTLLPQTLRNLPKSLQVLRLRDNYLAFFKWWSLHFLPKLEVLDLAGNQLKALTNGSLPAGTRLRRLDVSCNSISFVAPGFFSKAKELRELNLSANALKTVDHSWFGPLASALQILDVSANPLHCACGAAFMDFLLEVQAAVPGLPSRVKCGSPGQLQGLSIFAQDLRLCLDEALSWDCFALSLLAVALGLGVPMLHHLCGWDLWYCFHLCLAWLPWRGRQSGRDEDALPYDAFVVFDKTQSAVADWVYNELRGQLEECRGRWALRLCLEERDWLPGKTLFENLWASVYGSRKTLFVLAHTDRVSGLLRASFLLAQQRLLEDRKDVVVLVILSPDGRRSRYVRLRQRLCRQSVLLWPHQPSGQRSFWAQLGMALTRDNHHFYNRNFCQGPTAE
As to the kind of experiment: TLR9 inhibition reporter assay (HEK-Blue, SEAP). Conditions: HEK-Blue cells overexpressing human TLR9, ligand ODN2006 200 nM, 22 hour incubation. The gist of the method: as §1

For the next experiment, the target named is T3, human TLR8 (Homo sapiens, UniProt Q9NR97).
T3 construct: host or cells: HEK-Blue cells
T3 sequence (Q9NR97 27-1041): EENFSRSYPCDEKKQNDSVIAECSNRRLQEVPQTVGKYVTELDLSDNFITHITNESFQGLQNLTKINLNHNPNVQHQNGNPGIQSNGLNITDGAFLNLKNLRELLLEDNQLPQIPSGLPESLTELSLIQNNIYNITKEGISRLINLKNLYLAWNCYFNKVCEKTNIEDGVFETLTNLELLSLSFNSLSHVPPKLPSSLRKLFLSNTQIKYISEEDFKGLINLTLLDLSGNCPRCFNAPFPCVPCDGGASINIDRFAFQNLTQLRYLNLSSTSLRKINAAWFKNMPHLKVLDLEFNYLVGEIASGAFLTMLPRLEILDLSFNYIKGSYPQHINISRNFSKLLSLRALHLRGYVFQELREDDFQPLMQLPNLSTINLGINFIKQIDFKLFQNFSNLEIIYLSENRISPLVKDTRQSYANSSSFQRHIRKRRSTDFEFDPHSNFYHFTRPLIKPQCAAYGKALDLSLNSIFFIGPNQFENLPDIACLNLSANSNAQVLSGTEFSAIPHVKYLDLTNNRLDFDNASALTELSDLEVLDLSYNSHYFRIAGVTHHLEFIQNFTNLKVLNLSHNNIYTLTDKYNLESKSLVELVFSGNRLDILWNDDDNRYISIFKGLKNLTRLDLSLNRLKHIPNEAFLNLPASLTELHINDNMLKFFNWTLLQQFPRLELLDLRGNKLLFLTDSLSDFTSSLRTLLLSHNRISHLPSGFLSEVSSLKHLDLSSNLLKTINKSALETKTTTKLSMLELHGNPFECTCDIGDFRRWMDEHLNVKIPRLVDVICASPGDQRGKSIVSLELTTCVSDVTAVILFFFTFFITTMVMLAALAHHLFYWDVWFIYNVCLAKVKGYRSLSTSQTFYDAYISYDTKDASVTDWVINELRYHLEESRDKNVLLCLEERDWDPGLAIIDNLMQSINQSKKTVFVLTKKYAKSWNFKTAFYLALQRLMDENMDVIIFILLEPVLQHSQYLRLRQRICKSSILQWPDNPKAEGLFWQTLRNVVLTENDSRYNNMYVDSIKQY
The experiment is described as follows: TLR8 inhibition reporter assay (HEK-Blue, SEAP). Conditions: HEK-Blue cells overexpressing human TLR8, ligand R848 14.25 μM, 22 hour incubation. In a few lines:
as §1

Each structure is given as a SMILES string.

Consider `COCCN1C[C@H]2C[C@H](N3CCC(c4cc(C)c5nc(-c6cc(OC)c7ncnn7c6)n(C)c5n4)CC3)C[C@H]2C1` [Example 46, 2-(8-methoxy-[1,2,4]triazolo[1,5-a]pyridin-6-yl)-5-(1-((3aR,5s,6aS)-2-(2-methoxyethyl)octahydrocyclopenta[c]pyrrol-5-yl)piperidin-4-yl)-3,7-dimethyl-3H-imidazo[4,5-b]pyridine], for which the IC50 was 0.36 µM on human TLR7, 0.027 µM on human TLR9 and more than 50 µM at human TLR8.

In the case of `Cc1cc(-c2ccc(CN3CCC(N4CCOCC4)CC3)cc2)nc2c1nc(-c1ccc(S(C)(=O)=O)cc1)n2C1CC1` [Example 47, 4-(1-(4-(3-cyclopropyl-7-methyl-2-(4-(methylsulfonyl)phenyl)-3H-imidazo[4,5-b]pyridin-5-yl)benzyl)piperidin-4-yl)morpholine], the IC50 against human TLR7 was 15 µM; against human TLR9, 0.29 µM; on human TLR8 it was more than 50 µM.

In the case of `COc1ccc(-c2nc3ncc(-c4ccc(N5CCN(C(C)C)CC5)cc4)cc3n2C)cc1OC` [Example 48, 2-(3,4-dimethoxyphenyl)-6-(4-(4-isopropylpiperazin-1-yl)phenyl)-1-methyl-1H-imidazo[4,5-b]pyridine], the IC50 worked out at 1.5 µM against human TLR7, 0.28 µM against human TLR9 and 18 µM at human TLR8.

As to `CC(C)N1CCN(c2ccc(-c3cnc4nc(-c5ccc(S(C)(=O)=O)cc5)n(C)c4c3)cc2)CC1` [Example 49, 6-(4-(4-isopropylpiperazin-1-yl)phenyl)-1-methyl-2-(4-(methylsulfonyl)phenyl)-1H-imidazo[4,5-b]pyridine], the IC50 against human TLR7 stood at 4.2 µM; at human TLR9, 0.35 µM; at human TLR8, 2.7 µM.

On to `CC(C)N1CCN(c2ccc(-c3cnc4nc(-c5ccc(S(C)(=O)=O)cc5)n(C5CC5)c4c3)cc2)CC1` [Example 51, 1-cyclopropyl-6-(4-(4-isopropylpiperazin-1-yl)phenyl)-2-(4-(methylsulfonyl)phenyl)-1H-imidazo[4,5-b]pyridine], for which the IC50 was found to be 2.7 µM against human TLR7, 0.34 µM at human TLR9 and 4.2 µM at human TLR8.

Take `COc1ccc(-c2nc3ccc(-c4ccc(N5CCN(C(C)C)CC5)cc4)nc3n2C)cc1OC` [Example 52, 2-(3,4-dimethoxyphenyl)-5-(4-(4-isopropylpiperazin-1-yl)phenyl)-3-methyl-3H-imidazo[4,5-b]pyridine]: the results for the IC50 against human TLR7, on human TLR9 and against human TLR8 were 1.2 µM, 0.64 µM and more than 50 µM, respectively.

For the molecule `CC(C)N1CCN(c2ccc(-c3ccc4nc(-c5ccc(S(C)(=O)=O)cc5)n(C)c4n3)cc2)CC1` [Example 53, 5-(4-(4-isopropylpiperazin-1-yl)phenyl)-3-methyl-2-(4-(methylsulfonyl)phenyl)-3H-imidazo[4,5-b]pyridine], the IC50 is more than 50 µM against human TLR7, 0.93 µM against human TLR9 and more than 50 µM at human TLR8.

In the case of `CC(C)N1CCN(c2ccc(-c3ccc4nc(-c5ccc(S(C)(=O)=O)cc5)n(C5CC5)c4n3)cc2)CC1` [Example 54, 3-cyclopropyl-5-(4-(4-isopropylpiperazin-1-yl)phenyl)-2-(4-(methylsulfonyl)phenyl)-3H-imidazo[4,5-b]pyridine], the IC50 is more than 50 µM against human TLR7, 0.76 µM on human TLR9 and more than 50 µM against human TLR8.

Regarding `COc1ccc(-c2nc3ccc(-c4ccc(N5CCN(C(C)C)CC5)cc4)nc3n2C2CC2)cc1OC` [Example 55, 3-cyclopropyl-2-(3,4-dimethoxyphenyl)-5-(4-(4-isopropylpiperazin-1-yl)phenyl)-3H-imidazo[4,5-b]pyridine], the IC50 on human TLR7 was 40 µM; at human TLR9, 1.4 µM; against human TLR8, more than 50 µM.

Consider `CS(=O)(=O)c1ccc(-c2nc3ccc(-c4ccc(N5CCN(CCN6CCOCC6)CC5)cc4)nc3n2C2CC2)cc1` [Example 57, 4-(2-(4-(4-(3-cyclopropyl-2-(4-(methylsulfonyl)phenyl)-3H-imidazo[4,5-b]pyridin-5-yl)phenyl)piperazin-1-yl)ethyl)morpholine], for which the values for the 50% inhibitory concentration (IC50) against human TLR7, against human TLR9 and against human TLR8 were more than 50 µM, 3.2 µM and more than 50 µM, respectively.

On to `COc1ccc(-c2nc3c(C)cc(-c4ccc(N5CCC6(CC5)CN(C(C)C)C6)cc4)nc3n2C)cc1OC` [Example 58, 2-(3,4-dimethoxyphenyl)-5-(4-(2-isopropyl-2,7-diazaspiro[3.5]nonan-7-yl)phenyl)-3,7-dimethyl-3H-imidazo[4,5-b]pyridine], for which the figures for the IC50 on human TLR7, against human TLR9 and against human TLR8 were 1.6 µM, 0.54 µM and 15 µM, respectively.

Regarding `COc1ccc(-c2nc3c(C)cc(-c4ccc(N5CCC6(CC5)CN(CC(C)C)C6)cc4)nc3n2C)cc1OC` [Example 60, 2-(3,4-dimethoxyphenyl)-5-(4-(2-isobutyl-2,7-diazaspiro[3.5]nonan-7-yl)phenyl)-3,7-dimethyl-3H-imidazo[4,5-b]pyridine], the IC50 was 2.5 µM on human TLR7, 1.1 µM against human TLR9 and 3.6 µM on human TLR8.
